Test results reported in PubChem BioAssay (NCI).
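How tested: cells in 96-well plates exposed to compound for 48 hours at five concentrations. GI50 marks 50% less growth. TGI marks complete inhibition of growth.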

Key:
Assay in all cases: NCI-60 cell line screen, 48 h
MALME-3M melanoma = system: MALME-3M melanoma
A498 renal = system: A498 renal
SK-OV-3 ovarian = system: SK-OV-3 ovarian
HOP-62 NSCLC = system: HOP-62 NSCLC
K-562 leukemia = system: K-562 leukemia
UACC-257 melanoma = system: UACC-257 melanoma
HCT-15 colon = system: HCT-15 colon
U251 CNS = system: U251 CNS
DU-145 prostate = system: DU-145 prostate
MDA-MB-231 breast = system: MDA-MB-231 breast

SMILES	TGI (MALME-3M melanoma)	TGI (A498 renal)	TGI (SK-OV-3 ovarian)	TGI (HOP-62 NSCLC)	TGI (K-562 leukemia)	TGI (UACC-257 melanoma)	TGI (HCT-15 colon)	TGI (U251 CNS)	TGI (DU-145 prostate)	TGI (MDA-MB-231 breast)	GI50 (DU-145 prostate)	GI50 (MDA-MB-231 breast)	GI50 (A498 renal)	GI50 (SK-OV-3 ovarian)	GI50 (HOP-62 NSCLC)	GI50 (K-562 leukemia)	GI50 (UACC-257 melanoma)	GI50 (HCT-15 colon)	GI50 (U251 CNS)	GI50 (MALME-3M melanoma)
COCN1COCN=C1NC#N	> 100 µM	> 100 µM	> 100 µM	> 100 µM	> 100 µM	> 100 µM	> 100 µM	> 100 µM												
O=C1N2Cc3c4ccc5c3CN3C(=O)N6Cc7c(ccc(c7CN1C6(c1ccccc1)C23c1ccccc1)OCCOCCNCCOCCO4)OCCOCCNCCOCCO5 (stereo not given)	59.6 µM	> 100 µM	> 100 µM	> 100 µM	> 100 µM	69 µM	91.3 µM	> 100 µM												
COC(=O)C1Cc2c(n(C)c3ccccc23)C(CCC(=O)O)N1Cc1ccccc1 (stereo not given)	> 100 µM	76.5 µM	> 100 µM	> 100 µM	> 100 µM	> 100 µM	> 100 µM	> 100 µM												
O=C(CCCN1CCC(O)(c2ccc(Cl)cc2)CC1)c1ccc(F)cc1	36.2 µM		> 100 µM	> 100 µM	> 100 µM	46.7 µM	37.5 µM	41.1 µM	> 100 µM	51.5 µM										
O=S(=O)(O)c1cc(O)c(N=Nc2ccc(O)cc2O)c2ccccc12	> 100 µM		> 100 µM	> 100 µM	> 100 µM	> 100 µM	> 100 µM	> 100 µM		> 100 µM										
O=[N+]([O-])C=C(c1ccc(Cl)cc1)c1ccc(Cl)cc1		36.2 µM		37.5 µM	50.2 µM	36.9 µM	38 µM	29.8 µM												
CC1/C(=N\O)CC(c2ccccc2)N(C)C1c1ccccc1 (stereo not given)	> 100 µM	> 100 µM	> 100 µM	> 100 µM	> 100 µM	> 100 µM	> 100 µM	> 100 µM												
O=C1C(c2ccc(Br)cc2)=[N+]([O-])c2ccccc21	32.7 µM	56.1 µM	> 100 µM	68.8 µM	33.5 µM	24.7 µM	23.7 µM	27.9 µM												
O=C(CC1OC(O)C(Cl)=C1Cl)c1cccnc1 (stereo not given)	> 100 µM	> 100 µM	> 100 µM	> 77.7 µM	> 100 µM	> 100 µM	> 56.8 µM	> 57.7 µM												
CN(c1ccc(C(=O)c2ccc(N(C)S(C)(=O)=O)cc2)cc1)S(C)(=O)=O	> 100 µM	> 100 µM	> 100 µM		> 100 µM	> 100 µM		> 100 µM												
Cc1cccc(C2SCc3nc4ccccc4n32)c1 (stereo not given)	49.6 µM		72.9 µM	66.6 µM	> 100 µM		54.5 µM	47.2 µM												
CCOC(=O)c1cc2c(cc1Cl)SC(=Nc1ccccc1)N(S(=O)(=O)c1ccc(Cl)cc1)S2(=O)=O		24.6 µM	35.2 µM	32.6 µM	38.7 µM	40.3 µM	21.9 µM	25.9 µM	31 µM	33.7 µM	17.3 µM	13.2 µM	11.4 µM	17.4 µM	16 µM	15 µM	17.6 µM	6.52 µM	10.6 µM	
O=c1[nH]c2ccccc2nc1/C=C(\O)c1ccccc1O	> 100 µM	> 100 µM	> 100 µM	> 100 µM	> 100 µM	> 100 µM	> 100 µM	> 100 µM												
COc1ccc(-c2nc(-c3ccc(C)cc3)cn3ccnc23)cc1			> 50 µM	> 50 µM	3.92 µM	25.8 µM	> 50 µM	> 50 µM	> 50 µM	38.8 µM	6.11 µM	4.24 µM		33.5 µM	13.9 µM	0.815 µM	9.54 µM	2.56 µM	3.42 µM	
CCOP(=O)(OCC)C1CCCOC1=O (stereo not given)	> 100 µM	> 100 µM	> 100 µM	> 100 µM	> 100 µM	> 100 µM	> 100 µM	> 100 µM												
CN(C)C(=N/O)/C(=N\O)N(C)C	> 100 µM	> 100 µM	> 100 µM	> 100 µM	> 100 µM	> 100 µM	> 100 µM	> 100 µM												
Cc1cc2c(C)n(Cc3ccccc3Cl)nc2c(C(=O)O)c1C	> 100 µM		> 100 µM	> 100 µM		> 100 µM	> 100 µM	> 100 µM												
CNC(=O)c1c(NC(=O)c2ccc(C(C)(C)C)cc2)sc2c(CN(C)C)c(O)ccc12	3.51 µM				1.32 µM	4.09 µM	1.82 µM			3.67 µM		1.81 µM				0.317 µM	1.95 µM	0.459 µM		1.73 µM
O=C([CH-]C(=O)c1ccccc1)c1ccccc1.[CH-]1CCCCC1.[CH-]1CCCCC1.[CH-]1CCCCC1.[Sn+4]	22.1 µM	28.9 µM	68.6 µM	20 µM	6.15 µM	19.2 µM	18.4 µM	20.8 µM					15.4 µM	43.5 µM	7.85 µM	2.31 µM	4.29 µM	5.67 µM	6.86 µM	8.75 µM
CC1=C(C(=O)Nc2ccccc2)C(c2cccc3ccccc23)C(C(=O)Nc2ccccc2)=C(C)N1	37.4 µM	48.5 µM	38.5 µM	35.4 µM	72.5 µM	39.2 µM	30.5 µM	31.3 µM												
COC(=O)C1=C(O)[C@H](C(=O)OC)C2(O)C(C(=O)OC)[C@H](c3ccc(OC(=O)C(C)c4ccc(CC(C)C)cc4)cc3)C[C@@H]1[C@@H]2C(=O)OC (stereo not given in full)			> 50 µM	> 50 µM	> 50 µM	> 50 µM	> 50 µM	30.2 µM	9.58 µM	22.8 µM	0.804 µM	5.52 µM		38.5 µM	31.7 µM	0.695 µM	27.2 µM	12.9 µM	11.6 µM	
COC(=O)N/N=C(\C)c1c(O)cc(C)oc1=O	> 100 µM	> 100 µM	> 100 µM	> 100 µM	97.7 µM	> 100 µM	> 100 µM	> 100 µM												
